The values that follow come from article PMC5484146 (Journal of the American Chemical Society, 2016).

A short description of one data set: Hydrogelation test. It is filed as physicochemical. The following applies: 4 mM solution of 1, pH changed to pH 6.4, Figure S2.
For data set [1] the following is noted: 1 (800 µM), peaks disappear at 4.0 wt% Tw-80.
A short description of data set [2]: TEM / optical observation of assemblies and aggregates. It is filed as physicochemical.

With Nap-FFYGGaa [compound 1], the hydrogel formation entry in “Hydrogelation test” is “self-supporting gel”. Moreover, in data set [1], the “size of the assemblies (DLS peaks)” value is reported as above 100 nm. Also, the “appearance after addition of five equivalents of 2” value in data set [2] (500 µM suspension of 1, 24–48h after the addition, Figure S5) is recorded as “opaque colloidal precipitate”. Further, the “morphology on direct addition in water” value in data set [2] (1 500 µM, pH 7.4, TEM) was “suspension consisting of nanoribbons”. Besides, the “binding with 2 by ITC, in words” value (ITC in PBS, no surfactant, 1 and 3 as assemblies) is recorded as “too weak to be measured by ITC”. For the same compound, the “ITC heating profile on titration with 2, in words” value (ITC, 1.0 wt% of Tw-80, Figure 2C) is reported as “release of heat”.
On to Nap-FFpYGGaa [1P], for which the “appearance after addition of one equivalent of 2, without ALP” value in data set [2] (1P 500 µM, 1 eq. 2, pH 7.4, TEM aggregates largely unstructured) is reported as “colloidal suspension”. The “morphology after simultaneous addition of 2 and ALP” value in data set [2] (1P 500 µM, 2 (1 eq.), ALP 1.25 U/mL, pH 7.4, TEM, precipitates over time) is on record as “large aggregates”. Besides, the “morphology after ALP dephosphorylation in the absence of 2” value in data set [2] (1P 500 µM, ALP 1.25 U/mL, pH 7.4, TEM) was “long nanofibers”.
As to `CN[C@H](CC(C)C)C(=O)N[C@H]1C(=O)N[C@@H](CC(N)=O)C(=O)N[C@H]2C(=O)N[C@H]3C(=O)N[C@H](C(=O)N[C@H](C(=O)O)c4cc(O)cc(O)c4-c4cc3ccc4O)[C@H](O)c3ccc(c(Cl)c3)Oc3cc2cc(c3O)Oc2ccc(cc2Cl)[C@H]1O` [vancomycin aglycon, reference compound], the “aggregate formation in EISA of 1P when it replaces 2” value in data set [2] (TEM, Figure S20, short fibers were observed) is listed as “no aggregates were observed”.
